# According to publication PMC11864979, “First-in-class ultralong-target-residence-time p38α inhibitors as a mitosis-targeted therapy for colorectal cancer” (Nature Cancer, 2025):
# Values joined by “and” are separate entries in the source; they are usually repeats but may differ in a detail not shown here. Equal entries are not always repeated. Where two headings read alike, the source gives them in different places.
# Columns and labels:
# HCT-15 = experiment: cell viability in human CRC cell line HCT-15; assay type: cell-based; settings: 4 d
# Method: (§1) To generate KAP^2D cells, KAP organoids were isolated from Matrigel, fragmented by mechanical dissociation and plated without any extracellular matrix on common cell culture dishes. Phoenix-Eco packaging cells (CRL-3214), HCT-15 (CCL-225), HCT 116 (CCL-247), COLO 205 (CCL-222), LS 174T (CL-188), RKO (CRL-2577) and HT-29 (HTB-38) were obtained from the American Type Culture Collection. The cells were cultured at 37 °C and 7% CO2 with RPMI (KAP^2D cells) or DMEM (other cell lines), supplemented with 10% FBS and penicillin–streptomycin. KAP^2D cells were authenticated using PCR (Kras locus and Trp53 locus). Phoenix-Eco packaging cells and HCT-15, HCT 116, COLO 205, LS 174T, RKO and HT-29 cells were authenticated by the provider using short tandem repeat profiling. No commonly misidentified cell lines were used. Mycoplasma contamination was excluded by a PCR-based analysis.
# (§2) For in vitro treatment studies, organoids were mechanically dissociated and digested using TrypLE supplemented with 100 µg ml^−1 DNaseI and 10.5 µM Y-27632 dihydrochloride (Invitrogen) at 37 °C. A total of 1,000–2,000 single cells were plated per well in white 96-well plates (Greiner) in culture medium containing 10% GFR Matrigel or Cultrex BME. The treatment with doxycycline (5 µg ml^−1), pharmacological inhibitors or corresponding volumes of DMSO was started 24 h after plating. Doxycycline was obtained from Sigma-Aldrich. […] Cell viability was measured by means of CellTiter-Glo 3D or CellTiter-Glo 2.0 reagent (Promega) according to the manufacturers’ instructions and the Infinite M Plex reader (Tecan, i-control version 3.9.1 software). Results were normalized to vehicle (DMSO) or to shNC. For cell-doubling assays, the cell number was quantified at the corresponding time points using Guava EasyCyte flow cytometer (Luminex, CytoSoft v5.2 software).
# [1] = in vivo pharmacokinetic studies in mice (plasma, LC-MS); design: species or system mouse
# Method: No mice were excluded during treatment studies. […] GFP imaging of tumors was performed using a Hamamatsu imaging system. For quantification of compounds in the murine plasma, 20 μl of tail-vein blood was diluted with 80 μl of heparin solution, before 200 μl of ice-cold acetonitrile with a defined internal standard was added. The samples were sonicated and centrifuged and the supernatant was subjected to liquid chromatography-mass spectrometry quantification. Full blood analyses were performed with the Sysmex KX-21N hematology analyzer.
# PDO2 = experiment: cell viability in patient-derived CRC organoids PDO2; assay type: cell-based, human; settings: Fig. 3c, replicates
# Method: as §2
# KMP organoids = experiment: cell viability in KMP organoids; assay type: cell-based, mouse
# Method: A total of 1,000–2,000 single cells were plated per well in white 96-well plates (Greiner) in culture medium containing 10% GFR Matrigel or Cultrex BME. The treatment with doxycycline (5 µg ml^−1), pharmacological inhibitors or corresponding volumes of DMSO was started 24 h after plating. Doxycycline was obtained from Sigma-Aldrich. […] Results were normalized to vehicle (DMSO) or to shNC. For cell-doubling assays, the cell number was quantified at the corresponding time points using Guava EasyCyte flow cytometer (Luminex, CytoSoft v5.2 software).
# PDO9 = experiment: cell viability in patient-derived CRC organoids PDO9; assay type: cell-based, human
# Method: as §2
# PDO7 = experiment: cell viability in patient-derived CRC organoids PDO7; assay type: cell-based, human
# Method: as §2
# PDO4 = experiment: cell viability in patient-derived CRC organoids PDO4; assay type: cell-based, human; settings: Fig. 3e, replicates
# Method: as §2
# RKO = experiment: cell viability in human CRC cell line RKO; assay type: cell-based; settings: ED Fig. 9g, replicates
# Method: as §1, §2
# PDO12 = experiment: cell viability in patient-derived CRC organoids PDO12; assay type: cell-based, human
# Method: as §2
# [2] = mouse, plasma, oral administration in mice, 20 mg kg^−1
# [3] = oral administration in mice, 20 mg kg^−1
smiles,measurement,setting,value
O=C(NCCN1CCOCC1)c1ccc2c(c1)C(=O)c1ccc(Nc3ccc(F)c(NC(=O)c4ccccc4)c3)cc1CC2 [Compound 1639],HCT-15 Cell viability (%),HCT-15; 0.0137 µM,92.80% and 91.50% and 85.00% and 82.22% and 80.95%
same,HCT-15 Cell viability (%),HCT-15; 0.0412 µM,78.90% and 80.07% and 94.65% and 93.32% and 92.61%
same,HCT-15 Cell viability (%),HCT-15; 0.1235 µM,84.07% and 87.40% and 91.28% and 90.94% and 89.46%
same,HCT-15 Cell viability (%),HCT-15; 0.3704 µM,84.12% and 88.83% and 87.00% and 85.77% and 86.10%
same,HCT-15 Cell viability (%),HCT-15; 1.1111 µM,77.30% and 80.39% and 72.06% and 72.72% and 71.41%
same,HCT-15 Cell viability (%),HCT-15; 3.3333 µM,62.02% and 64.03% and 55.98% and 56.04% and 55.89%
same,HCT-15 Cell viability (%),HCT-15; 10.0000 µM,36.90% and 37.04% and 27.63% and 27.72% and 28.84%
same,viability at 0.0137 µM,"HCT-15; Homo sapiens, HCT-15, 96 h, 0.0137 µM, read-out: HCT-15 Cell viability (%)",95.1%
same,viability at 0.0412 µM,"HCT-15; Homo sapiens, HCT-15, 96 h, 0.0412 µM, read-out: HCT-15 Cell viability (%)",77.5%
same,viability at 0.1235 µM,"HCT-15; Homo sapiens, HCT-15, 96 h, 0.1235 µM, read-out: HCT-15 Cell viability (%)",82.6%
same,viability at 0.3704 µM,"HCT-15; Homo sapiens, HCT-15, 96 h, 0.3704 µM, read-out: HCT-15 Cell viability (%)",80.4%
same,viability at 1.1111 µM,"HCT-15; Homo sapiens, HCT-15, 96 h, 1.1111 µM, read-out: HCT-15 Cell viability (%)",74%
same,viability at 3.3333 µM,"HCT-15; Homo sapiens, HCT-15, 96 h, 3.3333 µM, read-out: HCT-15 Cell viability (%)",56.5%
same,viability at 10 µM,"HCT-15; Homo sapiens, HCT-15, 96 h, 10.0000 µM, read-out: HCT-15 Cell viability (%)",36.6%
same,Plasma concentration,"[1]; 0 min of treatment, individual animals",0.00 µM
same,Plasma concentration,"[1]; 45 min of treatment, individual animals",7.88 µM and 3.04 µM and 8.11 µM
same,Plasma concentration,"[1]; 90 min of treatment, individual animals",5.28 µM and 6.24 µM
same,Plasma concentration,"[1]; 180 min of treatment, individual animals",4.65 µM and 2.91 µM and 1.27 µM
same,Plasma concentration,"[1]; 480 min of treatment, individual animals",0.69 µM and 0.19 µM and 0.76 µM
same,Plasma concentration,"[1]; 1440 min of treatment, individual animals",0.00 µM
same,concentration at 0 min,"[1]; mouse, plasma, oral, 20 mg kg^−1, 0 min of treatment, individual animals",0 nM
same,concentration at 90 min,"[1]; mouse, plasma, oral, 20 mg kg^−1, 90 min of treatment, individual animals",8.68 µM
same,concentration at 1440 min,"[1]; mouse, plasma, oral, 20 mg kg^−1, 1440 min of treatment, individual animals",0 nM
same,AUC,[1]; [2],27.6 µM·h
same,half-life,[1]; [2],2 h
same,C^max,[1]; [3],6.7 µM
same,t^max,[1]; [3],90 min
same,Cell viability (%),"PDO2; 0,5 µM, 5 µM",69.57% and 95.69% and 90.88%
same,Cell viability (%),"PDO2; 0,25 µM",93.94% and 86.22% and 63.24%
same,Cell viability (%),PDO2; 1 µM,53.19% and 51.96%
same,viability at 1 µM,"PDO2; Homo sapiens, 1 µM",68.7%
same,therapeutic effect in KMP organoids (in words),KMP organoids; 4 days,no therapeutic effects
same,Cell viability (%),"KMP organoids; Fig. 2i, 0,5 µM, replicates, 5 µM",101.57% and 92.29%
same,Cell viability (%),"KMP organoids; Fig. 2i, 0,25 µM, replicates",98.98% and 85.31% and 57.91%
same,Cell viability (%),"KMP organoids; Fig. 2i, 1 µM, replicates",98.40% and 93.50%
same,viability at 5 µM,"KMP organoids; Mus musculus, Fig. 2i, 0,5 µM, replicates",85.5%
same,viability at 1 µM,"KMP organoids; Mus musculus, Fig. 2i, 1 µM, replicates",105%
same,viability at 1 µM,"PDO9; Homo sapiens, 96 h, PDO9, 1 µM, 4 days",76.2%
same,Cell viability (%),"PDO9; PDO9, 0.5 µM, 4 d, 0.5 µM",87.86% and 110.04% and 106.00%
same,Cell viability (%),"PDO9; PDO9, 1 µM, 4 days, 1 µM",91.05% and 91.07%
same,viability at 1 µM,"PDO7; Homo sapiens, 96 h, PDO7, 1 µM, 4 days, read-out: Cell viability (%)",103%
same,Cell viability (%),"PDO7; PDO7, 0.5 µM, 4 d, 0.5 µM",99.28% and 131.17% and 112.30%
same,Cell viability (%),"PDO7; PDO7, 1 µM, 4 days, 1 µM",115.94% and 100.13%
same,Cell viability (%),"PDO4; 0,5 µM, 5 µM",53.06% and 53.55%
same,Cell viability (%),"PDO4; 0,25 µM, 25 µM",68.57% and 69.02%
same,Cell viability (%),PDO4; 1 µM,67.76% and 68.24%
same,viability at 5 µM,"PDO4; Homo sapiens, 0,5 µM",50.2%
same,viability at 25 µM,"PDO4; Homo sapiens, 0,25 µM",67.4%
same,viability at 1 µM,"PDO4; Homo sapiens, 1 µM",66.9%
same,RKO Cell viability (%),"RKO; 0.0137 µM, Repetition",124.75% and 148.62% and 118.75%
same,RKO Cell viability (%),"RKO; 0.0137 µM, first experiment",98.53% and 90.98%
same,RKO Cell viability (%),"RKO; 0.0412 µM, Repetition",93.50% and 149.21% and 112.61%
same,RKO Cell viability (%),"RKO; 0.0412 µM, first experiment",86.59% and 83.94%
same,RKO Cell viability (%),"RKO; 0.1235 µM, Repetition",125.44% and 110.57%
same,RKO Cell viability (%),"RKO; 0.1235 µM, first experiment",85.12% and 86.17%
same,RKO Cell viability (%),"RKO; 0.3704 µM, Repetition",111.28% and 89.40%
same,RKO Cell viability (%),"RKO; 0.3704 µM, first experiment",77.62% and 74.11%
same,RKO Cell viability (%),"RKO; 1.1111 µM, Repetition",109.66% and 139.17% and 117.64%
same,RKO Cell viability (%),"RKO; 1.1111 µM, first experiment",95.27% and 88.88%
same,RKO Cell viability (%),"RKO; 3.3333 µM, Repetition",74.32% and 93.61% and 73.54%
same,RKO Cell viability (%),"RKO; 3.3333 µM, first experiment",74.12% and 74.43%
same,RKO Cell viability (%),"RKO; 10.0000 µM, Repetition",42.39% and 44.96%
same,RKO Cell viability (%),"RKO; 10.0000 µM, first experiment",30.57% and 37.00%
same,viability at 0.0137 µM,"RKO; Homo sapiens, RKO, 0.0137 µM, first experiment, read-out: RKO Cell viability (%)",96.7%
same,viability at 0.0412 µM,"RKO; Homo sapiens, RKO, 0.0412 µM, first experiment, read-out: RKO Cell viability (%)",88.2%
same,viability at 0.1235 µM,"RKO; Homo sapiens, RKO, 0.1235 µM, Repetition, read-out: RKO Cell viability (%)",111%
same,viability at 0.1235 µM,"RKO; Homo sapiens, RKO, 0.1235 µM, first experiment, read-out: RKO Cell viability (%)",82.2%
same,viability at 0.3704 µM,"RKO; Homo sapiens, RKO, 0.3704 µM, first experiment, read-out: RKO Cell viability (%)",86%
same,viability at 1.1111 µM,"RKO; Homo sapiens, RKO, 1.1111 µM, first experiment, read-out: RKO Cell viability (%)",85.9%
same,viability at 3.3333 µM,"RKO; Homo sapiens, RKO, 3.3333 µM, first experiment, read-out: RKO Cell viability (%)",75%
same,viability at 10 µM,"RKO; Homo sapiens, RKO, 10.0000 µM, Repetition, read-out: RKO Cell viability (%)",43.1%
same,viability at 10 µM,"RKO; Homo sapiens, RKO, 10.0000 µM, first experiment, read-out: RKO Cell viability (%)",31.2%
same,Cell viability (%),"PDO12; PDO12, 0.5 µM, 4 d, 0.5 µM",74.14% and 86.52% and 99.28%
same,Cell viability (%),"PDO12; PDO12, 1 µM, 4 days, 1 µM",67.94% and 91.05% and 88.04%
